Experiments:
SK2-a channels = SK2-a channels (Rattus norvegicus, UniProt P0DP29+P70604); assay: Potentiation of WT SK2-a channel currents, inside-out patch, TsA201 cells; format: cell-based
EDHF-mediated responses = conditions: cited from earlier work
[1] = cited from earlier work
[2] = ratio of EC50s, SK2-a, 200 nM Ca2+

Chain of SK2-a channels (P70604 whole entry, one chain of several): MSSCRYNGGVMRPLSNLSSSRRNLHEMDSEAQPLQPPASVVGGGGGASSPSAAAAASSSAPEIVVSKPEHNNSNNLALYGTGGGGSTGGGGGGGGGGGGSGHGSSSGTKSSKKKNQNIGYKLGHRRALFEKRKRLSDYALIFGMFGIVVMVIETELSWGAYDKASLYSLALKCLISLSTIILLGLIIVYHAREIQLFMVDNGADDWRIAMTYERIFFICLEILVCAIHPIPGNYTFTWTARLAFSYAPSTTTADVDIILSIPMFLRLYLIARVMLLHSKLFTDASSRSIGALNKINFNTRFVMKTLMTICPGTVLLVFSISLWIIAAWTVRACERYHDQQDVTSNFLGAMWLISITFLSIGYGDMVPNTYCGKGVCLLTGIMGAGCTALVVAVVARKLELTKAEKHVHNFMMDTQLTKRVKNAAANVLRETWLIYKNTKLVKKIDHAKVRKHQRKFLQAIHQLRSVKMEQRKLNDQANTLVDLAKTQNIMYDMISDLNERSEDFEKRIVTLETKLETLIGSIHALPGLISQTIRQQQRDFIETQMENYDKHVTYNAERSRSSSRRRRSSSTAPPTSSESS

SMILES	EC50 (SK2-a channels)	Hill coefficient of potentiation of SK2-a channel activity (SK2-a channels; 200 nM Ca2+, inside-out patch)	fold less potent compared to NS309 (SK2-a channels; [2])	fold less potent than DCEBIO (SK2-a channels; [2])	effect on EDHF-mediated responses (EDHF-mediated responses)	effect on blood pressure [1]
NC(=O)Nc1ccccc1 [PHU, phenylurea]	1610 ± 200 µM	1.81 ± 0.22	more than 3600 fold	~75 fold	–	–
Nc1nc2c(ccc3ccccc32)s1 [SKA-31, Naphtho[1,2-d]thiazol-2-ylamine]	–	–	–	–	enhances	lowers the blood pressure
